Measurements as given in article PMC4868691, “β-catenin nuclear translocation in colorectal cancer cells is suppressed by PDE10A inhibition, cGMP elevation, and activation of PKG” (Oncotarget, 2015).
Like-named read-outs stand apart in the source and are kept apart here.

What was measured:
HT-29 cells [1] = assay: PARP cleavage by Western blot; format: cell-based, human; conditions: HT-29, 0.1 μM KT 5823 for 30 minutes before Pf-2545920 at 5 μM and 10 μM for 6 hours
Method: (§1) Cell lysates were separated by SDS-PAGE using 12% polyacrylamide gel, 7.5% for PDE10 protein analysis, followed by electrophoretic transfer to nitrocellulose membranes. The membranes were then blocked at room temperature on an orbital shaker for 1 hour in a solution of 5% non-fat dry milk in TBS with 0.1% Tween 20 (TBS-T). Membranes were then incubated overnight at 4 degrees on an orbital shaker with appropriate primary antibodies. Membranes were then washed three times with TBS-T before addition of appropriate secondary antibodies, and incubated at room temperature for 1 hour on an orbital shaker. Membranes were washed and developed using SuperSignal West Enhanced Chemiluminescence Reagent (Pierce).

HT-29 cells [2] = assay: Kinase inhibitor pretreatment, VASP phosphorylation after Pf-2545920 stimulation; format: cell-based, human
Method: (§2) C. […] They are assigned to Pf-2545920 because the x-axis label names it as the compound given in dose-response.
as §1

[3] = test system: HT-29 vector control cells; assay: Growth inhibition, HT-29 vector control cells; format: cell-based; conditions: Homo sapiens
Method: (§3) Growth Assays were performed by seeding 5,000 cells per well in a 96-well microtiter plate, or 2,500 cells per well in half-area 96-well microtiter plates. Cells were allowed to settle onto the bottom of the plate before being dosed with compounds in dose-response for 72 hours at 37°C in a humidified incubator containing 5% CO2. After incubation, growth inhibitory activity was assayed using the Cell Titer Glo Assay (Promega) according to manufacturer's recommendations.
(§4) HT-29 PDE10 knockdown cells were generated and described previously. Briefly, lentiviral particles targeting PDE10 were produced in HEK293T cells according to the manufacturer's instruction. HT-29 cells were transduced by the lentivirus particles followed by puromycin selection (5μg/ml) for 2 weeks. Individual cell colonies stably expressing shRNA were selected and isolated in the presence of puromycin, and evaluated by western blotting previously.

PDE4B2 = PDE4B2 (Homo sapiens, UniProt Q07343); assay: Phosphodiesterase isozyme specificity, PDE4B2; format: biochemical; conditions: PDE4B2, cAMP substrate
SW-480 colon tumor cells = assay: β-catenin nuclear translocation under Wnt3a stimulation (confocal immunofluorescence); format: cell-based, human; conditions: pre-incubation 30 minutes, Wnt3a conditioned media 5 hours
Method: Cover glass bottom 35mm tissue culture dishes were precoated with EmbryoMax 0.1% gelatin from Millipore according to manufacturer's recommendations. Cells were then plated and allowed to grow to 70-90% confluency before treatments. SW-480 cells were serum starved overnight prior to the addition of PDE10 inhibitors at the concentrations indicated. […] Briefly, Wnt3a or parental L-cells lacking Wnt3a were purchased from the ATCC and grown according to the manufacurer's recommendations. Once cells reached confluency, the media was collected and filtered before use. Conditioned media was added to SW-480 cells in order to stimulate nuclear translocation of β-catenin for 5 hours before fixation and staining. Cover glass bottom 35mm tissue culture dishes were precoated with EmbryoMax 0.1% gelatin from Millipore according to manufacturer's recommendations. Cells were then plated and allowed to grow to 70-90% confluency before treatments. Cells were fixed with 10% buffered formalin, before permeabilization with PBS containing 0.1% Trition X-100. Cells were incubated with the appropriate primary antibodies before incubation with secondary antibodies conjugated with Alexa-fluor 488 and mounted using ProLong Gold antifade reagent with DAPI (Molecular Probes-ThermoFisher Scientific). Images were acquired using a Nikon A1 Laser Scanning Confocal microscope. […]

PDE2A = PDE2A (Homo sapiens, UniProt O00408); assay: Phosphodiesterase isozyme specificity, PDE2A; format: biochemical
Sequence of PDE2A (O00408 whole entry, species assumed): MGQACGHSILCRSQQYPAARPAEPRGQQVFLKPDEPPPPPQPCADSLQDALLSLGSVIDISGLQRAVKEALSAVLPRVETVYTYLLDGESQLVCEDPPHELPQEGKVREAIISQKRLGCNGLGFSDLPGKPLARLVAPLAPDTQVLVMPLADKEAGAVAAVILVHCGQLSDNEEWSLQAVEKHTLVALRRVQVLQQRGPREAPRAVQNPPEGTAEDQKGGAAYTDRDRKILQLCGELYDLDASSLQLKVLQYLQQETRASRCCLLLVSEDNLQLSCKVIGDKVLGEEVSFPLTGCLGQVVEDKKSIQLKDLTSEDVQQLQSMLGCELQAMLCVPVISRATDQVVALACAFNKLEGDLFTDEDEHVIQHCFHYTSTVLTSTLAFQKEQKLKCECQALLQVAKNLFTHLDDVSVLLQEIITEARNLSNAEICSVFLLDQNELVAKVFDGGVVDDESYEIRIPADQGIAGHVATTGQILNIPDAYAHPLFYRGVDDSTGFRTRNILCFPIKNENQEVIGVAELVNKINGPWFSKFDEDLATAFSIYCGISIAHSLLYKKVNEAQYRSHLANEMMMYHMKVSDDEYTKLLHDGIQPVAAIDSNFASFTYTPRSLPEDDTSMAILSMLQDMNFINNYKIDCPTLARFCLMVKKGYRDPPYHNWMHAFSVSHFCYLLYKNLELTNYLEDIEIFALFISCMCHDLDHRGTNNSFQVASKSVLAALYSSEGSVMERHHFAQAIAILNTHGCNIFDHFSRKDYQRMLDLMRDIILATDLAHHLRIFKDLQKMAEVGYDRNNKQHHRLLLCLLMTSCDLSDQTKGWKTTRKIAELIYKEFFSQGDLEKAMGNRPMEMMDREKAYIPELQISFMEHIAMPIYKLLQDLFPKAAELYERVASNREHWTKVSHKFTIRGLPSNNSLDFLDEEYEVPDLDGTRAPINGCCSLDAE

HT-29 colon tumor cells = assay: Fluorescent cytotoxicity assay (CellTox Green); format: cell-based, human; conditions: dose response over time
Method: Cells were plated in 96-well microtiter plates at a […] of 5,000 cells per well and treated with compound or vehicle control at the doses and times indicated. Cytotoxicity was measured using CellTox Green Cytotoxicity Assay (Promega) according to the manufacturer's recommendations.

COLO-205 = assay: Growth inhibition assay (Cell Titer Glo), COLO-205; format: cell-based; conditions: Homo sapiens; COLO-205, 72 hours
Method: as §3

HCT-116 [4] = assay: Intracellular cAMP levels; format: cell-based, human; conditions: HCT-116, concentration-dependent
PDE9A = PDE9A (Homo sapiens, UniProt O76083); assay: Phosphodiesterase isozyme specificity, PDE9A; format: biochemical; conditions: cGMP substrate, @ 10 μM
PDE3B = PDE3B (Homo sapiens, UniProt Q13370); assay: Phosphodiesterase isozyme specificity, PDE3B; format: biochemical; conditions: @ 10 μM
Sequence of PDE3B (Q13370 whole entry, species assumed): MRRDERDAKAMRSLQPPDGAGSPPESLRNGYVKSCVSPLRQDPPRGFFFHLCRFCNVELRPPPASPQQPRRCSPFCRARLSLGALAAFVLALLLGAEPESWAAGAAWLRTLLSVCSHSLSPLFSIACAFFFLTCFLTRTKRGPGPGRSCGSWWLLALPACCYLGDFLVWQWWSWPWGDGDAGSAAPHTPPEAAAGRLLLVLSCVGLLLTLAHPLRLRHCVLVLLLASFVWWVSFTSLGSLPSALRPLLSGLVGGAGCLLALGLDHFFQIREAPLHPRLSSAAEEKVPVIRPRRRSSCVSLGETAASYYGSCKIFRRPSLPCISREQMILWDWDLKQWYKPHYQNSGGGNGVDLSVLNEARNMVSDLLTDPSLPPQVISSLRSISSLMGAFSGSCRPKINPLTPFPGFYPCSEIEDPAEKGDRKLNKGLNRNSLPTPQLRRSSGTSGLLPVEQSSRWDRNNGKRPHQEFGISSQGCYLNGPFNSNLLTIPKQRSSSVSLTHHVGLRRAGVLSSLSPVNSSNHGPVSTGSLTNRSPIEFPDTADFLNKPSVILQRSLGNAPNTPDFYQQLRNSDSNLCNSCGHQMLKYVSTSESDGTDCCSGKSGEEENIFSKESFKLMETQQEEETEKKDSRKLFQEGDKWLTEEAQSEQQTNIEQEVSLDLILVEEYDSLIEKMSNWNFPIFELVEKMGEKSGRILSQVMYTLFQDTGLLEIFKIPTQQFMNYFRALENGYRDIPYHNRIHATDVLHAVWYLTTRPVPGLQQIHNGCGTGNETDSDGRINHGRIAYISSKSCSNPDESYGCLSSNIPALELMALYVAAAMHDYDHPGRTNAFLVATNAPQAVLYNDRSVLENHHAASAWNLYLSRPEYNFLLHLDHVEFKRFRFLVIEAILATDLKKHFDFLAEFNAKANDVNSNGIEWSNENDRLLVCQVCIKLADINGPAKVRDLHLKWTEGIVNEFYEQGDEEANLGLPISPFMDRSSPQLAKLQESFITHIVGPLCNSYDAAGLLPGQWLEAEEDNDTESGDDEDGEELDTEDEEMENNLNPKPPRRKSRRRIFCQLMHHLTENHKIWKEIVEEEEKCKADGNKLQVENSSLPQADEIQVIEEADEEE

[5] = test system: HCT-116 colon tumor cells; assay: VASP/CREB phosphorylation by Western blot (PKG and PKA activation); format: cell-based, human
Method: as §1

HCT116 = assay: Growth inhibition assay (Cell Titer Glo), HCT116; format: cell-based; conditions: Homo sapiens, HCT-116; HCT116, 72 hours
Method: as §3

SW620 = assay: Growth inhibition assay (Cell Titer Glo), SW620; format: cell-based; conditions: Homo sapiens, SW-620; SW620, 72 hours
Method: as §3

KM12 = assay: Growth inhibition assay (Cell Titer Glo), KM12; format: cell-based; conditions: Homo sapiens; KM12, 72 hours
Method: as §3

[6] = test system: HT-29 PDE10 knockdown cells; assay: Growth inhibition, HT-29 PDE10 knockdown cells; format: cell-based; conditions: Homo sapiens; HT-29 PDE10 knockdown (shRNA) cells
Method: as §3, §4

[7] = test system: panel of nine human colon tumor cell lines; assay: Growth inhibition, panel of nine human colon tumor cell lines; format: cell-based; conditions: 72 hours, read-out: growth inhibition IC50 values, range over all lines
Method: as §3

HT-29 cells [8] = assay: Apoptosis, Annexin V-FITC + PI staining by FACS; format: cell-based, human; conditions: 72 hours; for cells staining positive for Annexin V: lower right quadrant; for cells staining positive for both Annexin V and PI: upper right quadrant
Method: Apoptosis was assayed using the Annexin V-FITC + PI apoptosis detection kit from Leinco Technologies according to the manufacturer's recommendations. HT-29 cells were incubated with compounds for 72 hrs at 37°C before being analyzed for apoptosis by FACS.

HCT-15 = assay: Growth inhibition assay (Cell Titer Glo), HCT-15; format: cell-based; conditions: Homo sapiens; HCT-15, 72 hours
Method: as §3

PDE3A = PDE3A (Homo sapiens, UniProt Q14432); assay: Phosphodiesterase isozyme specificity, PDE3A; format: biochemical
Sequence of PDE3A (Q14432 whole entry, species assumed): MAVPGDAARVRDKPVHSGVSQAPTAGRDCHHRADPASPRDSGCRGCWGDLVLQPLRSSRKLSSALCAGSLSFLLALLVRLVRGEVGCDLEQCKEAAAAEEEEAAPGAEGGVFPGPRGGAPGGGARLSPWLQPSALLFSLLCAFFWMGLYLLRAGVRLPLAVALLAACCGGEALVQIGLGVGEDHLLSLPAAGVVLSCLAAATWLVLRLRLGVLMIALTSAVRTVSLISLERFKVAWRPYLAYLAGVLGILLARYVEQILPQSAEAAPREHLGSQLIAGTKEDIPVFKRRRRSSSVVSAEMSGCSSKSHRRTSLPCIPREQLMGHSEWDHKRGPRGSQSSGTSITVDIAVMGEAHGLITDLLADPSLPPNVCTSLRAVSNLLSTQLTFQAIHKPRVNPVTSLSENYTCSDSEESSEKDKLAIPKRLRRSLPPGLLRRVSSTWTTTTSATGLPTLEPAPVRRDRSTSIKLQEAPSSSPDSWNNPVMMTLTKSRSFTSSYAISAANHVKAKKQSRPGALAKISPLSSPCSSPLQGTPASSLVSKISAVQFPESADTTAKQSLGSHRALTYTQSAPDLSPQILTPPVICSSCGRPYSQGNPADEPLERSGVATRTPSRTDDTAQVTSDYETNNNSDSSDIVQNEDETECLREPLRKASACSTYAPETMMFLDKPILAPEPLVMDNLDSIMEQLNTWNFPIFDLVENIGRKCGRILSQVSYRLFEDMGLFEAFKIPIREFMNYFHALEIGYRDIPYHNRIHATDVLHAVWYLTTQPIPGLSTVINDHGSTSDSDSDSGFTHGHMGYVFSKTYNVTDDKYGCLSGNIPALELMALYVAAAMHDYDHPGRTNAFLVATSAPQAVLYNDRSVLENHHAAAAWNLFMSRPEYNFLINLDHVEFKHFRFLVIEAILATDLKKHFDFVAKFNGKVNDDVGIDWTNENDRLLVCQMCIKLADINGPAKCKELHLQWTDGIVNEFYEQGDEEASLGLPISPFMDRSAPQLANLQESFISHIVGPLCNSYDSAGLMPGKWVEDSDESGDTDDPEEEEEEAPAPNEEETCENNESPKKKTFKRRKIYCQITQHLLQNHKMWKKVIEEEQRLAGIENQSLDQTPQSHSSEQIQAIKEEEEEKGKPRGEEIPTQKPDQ

PDE5 = PDE5 (Homo sapiens, UniProt O76074); assay: Phosphodiesterase isozyme specificity, PDE5; format: biochemical; conditions: PDE5, cGMP substrate
HCC-2998 = assay: Growth inhibition assay (Cell Titer Glo), HCC-2998; format: cell-based; conditions: Homo sapiens; HCC-2998, 72 hours
Method: as §3

HCT-116 [9] = assay: cGMP EIA assay, intracellular cGMP; format: cell-based, human; conditions: HCT-116, concentration-dependent
Method: Total levels of cGMP were measured using a competitive ELISA assay (Cayman Chemical) according to the manufacturer's recommendations. A standard curve is generated using samples of known cGMP concentrations provided with the assay and plotted using linear regression to extrapolate samples.

PDE1A = PDE1A (Homo sapiens, UniProt P54750); assay: Phosphodiesterase isozyme specificity, PDE1A; format: biochemical; conditions: @ 10 μM
Sequence of PDE1A (P54750 whole entry, species assumed): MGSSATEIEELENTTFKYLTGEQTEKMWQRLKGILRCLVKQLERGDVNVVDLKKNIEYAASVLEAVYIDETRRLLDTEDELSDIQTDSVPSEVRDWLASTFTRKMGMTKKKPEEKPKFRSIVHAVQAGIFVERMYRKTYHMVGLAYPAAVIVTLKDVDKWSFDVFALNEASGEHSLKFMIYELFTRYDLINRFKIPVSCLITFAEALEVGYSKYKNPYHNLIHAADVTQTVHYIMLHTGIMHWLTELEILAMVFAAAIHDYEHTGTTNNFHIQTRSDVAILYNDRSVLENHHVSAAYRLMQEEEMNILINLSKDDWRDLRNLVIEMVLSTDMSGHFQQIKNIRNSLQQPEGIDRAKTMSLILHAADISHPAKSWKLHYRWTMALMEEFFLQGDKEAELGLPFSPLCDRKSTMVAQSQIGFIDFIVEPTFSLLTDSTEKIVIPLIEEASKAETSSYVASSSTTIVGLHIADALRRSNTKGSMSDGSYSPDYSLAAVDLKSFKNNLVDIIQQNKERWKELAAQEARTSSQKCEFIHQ

HT-29 cells [10] = assay: Growth inhibition with or without H89 pretreatment (CellTiter-Glo); format: cell-based, human; conditions: for IC50: Homo sapiens
Method: as §2, §3

PDE11A = PDE11A (Homo sapiens, UniProt Q9HCR9); assay: Phosphodiesterase isozyme specificity, PDE11A; format: biochemical; conditions: @ 10 μM
Sequence of PDE11A (Q9HCR9 whole entry, species assumed): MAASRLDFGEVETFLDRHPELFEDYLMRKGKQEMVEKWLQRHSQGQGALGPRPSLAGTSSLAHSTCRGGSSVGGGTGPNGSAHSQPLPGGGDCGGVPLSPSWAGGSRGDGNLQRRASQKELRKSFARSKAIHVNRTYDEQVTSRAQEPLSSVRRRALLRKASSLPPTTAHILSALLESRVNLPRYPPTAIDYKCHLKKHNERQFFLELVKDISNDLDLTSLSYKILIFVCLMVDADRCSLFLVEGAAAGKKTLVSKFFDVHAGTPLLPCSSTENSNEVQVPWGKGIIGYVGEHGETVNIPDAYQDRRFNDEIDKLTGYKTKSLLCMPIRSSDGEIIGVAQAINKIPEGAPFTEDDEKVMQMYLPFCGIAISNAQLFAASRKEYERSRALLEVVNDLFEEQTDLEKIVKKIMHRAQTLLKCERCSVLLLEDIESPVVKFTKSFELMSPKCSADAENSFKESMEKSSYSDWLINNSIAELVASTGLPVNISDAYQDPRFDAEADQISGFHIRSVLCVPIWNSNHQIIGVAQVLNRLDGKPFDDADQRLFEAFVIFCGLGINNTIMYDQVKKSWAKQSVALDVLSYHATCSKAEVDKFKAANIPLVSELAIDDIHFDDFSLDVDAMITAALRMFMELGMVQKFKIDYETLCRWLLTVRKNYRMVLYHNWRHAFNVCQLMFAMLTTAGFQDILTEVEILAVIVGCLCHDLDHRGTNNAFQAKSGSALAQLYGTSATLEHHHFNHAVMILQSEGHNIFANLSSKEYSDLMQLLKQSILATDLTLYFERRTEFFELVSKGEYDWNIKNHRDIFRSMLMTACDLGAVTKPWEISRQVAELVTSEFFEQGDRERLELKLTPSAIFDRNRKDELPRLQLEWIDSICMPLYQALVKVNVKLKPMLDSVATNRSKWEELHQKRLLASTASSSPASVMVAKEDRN

colon tumor cell = assay: Colon tumor cell growth, rolipram; format: cell-based; conditions: concentrations up to 100 μM, data not shown
[11] = HT-29, 30 minutes pretreatment in ascending concentrations, then 5 μM Pf-2545920 for 1 hour
[12] = cAMP substrate, read-out: cAMP IC50
[13] = cGMP substrate, read-out: cGMP IC50
[14] = HT-29, 10 minutes pretreatment in ascending concentrations, then 5μM Pf-2545920 for 1 hour

## COC(=O)[C@@]1(OC)C[C@H]2O[C@]1(C)n1c3ccccc3c3c4c(c5c6ccccc6n2c5c31)C(=O)N(C)C4 [KT 5823]
HT-29 cells [1]
  apoptosis by Western blot for cleaved-PARP: reduced apoptosis
HT-29 cells [2]; [11]
  PKA activity (VASP phosphorylation at serine 157): minimally affecting the activity of PKA
  PKG activation (VASP phosphorylation at serine 239): caused a decrease in PKG activation

## Cn1cc(-c2ccncc2)c(-c2ccc(OCc3ccc4ccccc4n3)cc2)n1 [Pf-2545920, 2-[4-(1-Methyl-4-pyridin-4-yl-1H-pyrazol-3-yl)-phenoxymethyl]-quinoline]
[3]
  IC50: 1.2 µM
PDE4B2
  IC50: 2.36 µM
SW-480 colon tumor cells; SW-480, 10 μM
  β-catenin in the nucleus: reduced the amount of β-catenin in the nucleus
SW-480 colon tumor cells; SW-480, 25 μM
  total protein levels of β-catenin: total protein levels of β-catenin are decreased
PDE2A; [12]
  IC50: 36.6 µM
PDE2A; [13]
  IC50: > 50 µM
HT-29 colon tumor cells
  cell death (fluorescence intensity): induces cell death in a concentration-dependent manner
COLO-205
  IC50: 18.5 µM
HCT-116 [4]
  intracellular cAMP levels: increased
PDE9A
  cGMP IC50: Inactive @ 10 μM
PDE3B; cAMP substrate
  cAMP IC50: Inactive @ 10 μM
PDE3B; cGMP substrate
  cGMP IC50: Inactive @ 10 μM
[5]; HCT-116, 5 μM, time course up to 8 hours, time-dependent
  phosphorylated VASP (serine 239 and serine 157): increased the level of phosphorylated VASP
[5]; HCT-116, dose response, 1 hour
  PKG and PKA activation (phosphorylation of VASP and CREB): activated both PKG and PKA
HCT116
  IC50: 19.3 µM
SW620
  IC50: 19.6 µM
KM12
  IC50: 6.9 µM
[6]
  IC50: 13.4 µM
[7]
  IC50: 6.9 to 19.6 µM
HT-29 cells [8]; HT-29, 10 μM
  cells staining positive for Annexin V: 25.9%
  cells staining positive for both Annexin V and PI: 31.9%
HT-29 cells [8]; HT-29, 25 μM
  cells staining positive for Annexin V: 38.2%
  cells staining positive for both Annexin V and PI: 31.4%
HCT-15
  IC50: 14.4 µM
PDE3A; [12]
  IC50: > 50 µM
PDE3A; [13]
  IC50: > 50 µM
PDE5
  IC50: 8.6 µM
HCC-2998
  IC50: 18.9 µM
HCT-116 [9]
  intracellular cGMP levels: increased
PDE1A; cAMP substrate
  cAMP IC50: Inactive @ 10 μM
PDE1A; cGMP substrate
  cGMP IC50: Inactive @ 10 μM
HT-29 cells [10]; HT-29, pretreated with 0.1μM H89 for 10 minutes, 72 hours
  IC50: 4.8 µM
HT-29 cells [10]; HT-29, without H89, 72 hours
  IC50: 4.6 µM
PDE11A; cAMP substrate
  cAMP IC50: Inactive @ 10 μM
PDE11A; cGMP substrate
  cGMP IC50: Inactive @ 10 μM

## O=S(=O)(NCCNC/C=C/c1ccc(Br)cc1)c1cccc2cnccc12 [H89]
HT-29 cells [2]; [14]
  PKA activation (VASP phosphorylation at serine 157): blocks the activation of PKA in a concentration-dependent manner
  PKG activation (VASP phosphorylation at serine 239): blocking the activation of PKG, albeit at higher concentrations
HT-29 cells [10]; HT-29, 0.1μM H89 for 10 minutes before Pf-2545920 for 72 hours
  effect on sensitivity of cells to growth inhibitory activity of Pf-2545920: had no effect on the sensitivity

## COc1ccc(C2CNC(=O)C2)cc1OC1CCCC1 (stereo not drawn) [rolipram]
Colon tumor cell
  colon tumor cell growth: did not affect colon tumor cell growth
